Experimental data: PMC12567248 (Pharmaceutics, 2025)
Where two headings read alike, the source gives them in different places.

What was measured:
Male Sprague Dawley Rats = experiment: Acute oral toxicity, OECD procedure 423; conditions: rat, in vivo
Experimental: Acute oral toxicity was analyzed in accordance with the OECD guidelines for testing chemical compounds using the acute toxic class method (OECD procedure 423). Prior to dosing, 1 mL of the blood was extracted from the test animals (Male Sprague Dawley Rats, 200–250 g) using the tail vein method and was submitted for alanine aminotransferase (ALT), aspartate aminotransferase (AST), and blood urea nitrogen (BUN), and creatinine level determinations for signs of liver and kidney damages, respectively. […] Since no test animals were recorded to show any signs of toxicity or death, an additional three test animals were given the same dose. […] After the 14 days of observation, the test animals were sedated using Zoletil 50 (50 mg tiletamine base, 50 mg zolazepam base, and 57.7 mg mannitol per mL) at a dose of 50 mg kg^−1 prior to blood extraction using the cardiac puncture method. The animals were euthanized using a carbon dioxide chamber. The blood samples were analyzed for liver and kidney functions. The major organs, such as the liver and kidneys of the test animals, were harvested for tissue mounting and histopathological analysis.

[1] = Oral and intraperitoneal bioavailability, syringic acid in blood; assay type: in vivo, Sprague Dawley rats; conditions: Sprague Dawley, rat, serum; for AUC(0-t): read-out: AUC0–72 (converted)
Experimental: (§1) The reduction in the dosing for the intraperitoneal route is to prevent abdominal distress in the test animal post-administration.
After the given time points, the test animals were sedated using Zoletil 50 (50 mg tiletamine base, 50 mg zolazepam base, and 57.7 mg mannitol per mL) at a dose of […] before blood extraction using the cardiac puncture method. The blood was allowed to clot and centrifuged at 4000 rpm at 4 °C for 5 min to obtain the serum. The sera were mixed with an equal amount of methanol to precipitate proteins and centrifuged again to obtain the deproteinized sera. The procedure was repeated until no precipitation with methanol occurred. The protein-free sera were dried under reduced pressure for prior analysis using HPLC.
(§2) Samples were prepared using the mobile phase consisting of 80:20 water with 0.1% acetic acid: methanol. HPLC analysis was performed using a linear gradient elution at a flow rate of 1.0 mL min^−1. The gradient program started at 80:20 (water with 0.1% acetic acid: methanol) and linearly progressed to 40:60 over 10 min. The column oven temperature was maintained at 30 °C. Detection was carried out using a PDA detector set at 218 nm.

[2] = Tissue distribution of syringic acid in liver and kidney; assay type: in vivo, Sprague Dawley rats; conditions: for Cmax / Tmax / half-life: Sprague Dawley, rat; for AUC0–72 / AUC0–∞: 100 mg kg^−1 syringic acid or equivalent amount in SYA@MIL-100(Fe)
Experimental: as §1
After the blood collection from the test animals, the animals were euthanized, and the organs, such as the liver and kidneys, were taken. The organs were pat-dried and weighed to determine the amount of NSS to be used for homogenization (1 mL of NSS per 700 mg of organ). The organs were homogenized and mixed with equal amounts of absolute ethanol. The mixture was centrifuged at 5000 rpm for 10 min. The serum samples were supplemented with an equal amount of absolute ethanol to facilitate the precipitation of proteins. This procedure was performed until no precipitation occurred. The supernatant was allowed to dry under reduced pressure before HPLC analysis.
as §2

[3] = In vitro drug release study, sample and separation method, with release model fitting; assay type: physicochemical; conditions: 37.5 °C
Experimental: The release media used were ultrapure water, 0.1 N phosphate-buffered saline (PBS) pH 7.4 for simulated blood pH, PBS pH 6.8 for simulated intestinal fluid, and 0.1 N HCl pH 2.0 for simulated gastric fluid. […] The setup was stirred at 75 rpm at 37.5 ± 0.5 °C. […] A fresh amount of the media was used to compensate for the amount of the release media taken at every time point. The aliquots were centrifuged at 5000 rpm for 10 min. The supernatant liquid was stored for syringic acid quantification using HPLC analysis, while the pellets were returned to the setup. The cumulative amount of syringic acid released from the MIL-100(Fe) was utilized to predict and correlate the behavior of the in vitro release. The experimental data were fitted to five predictable models: zero-order, first-order, Higuchi, Korsmeyer–Peppas, and Hixson–Crowell models. Data fitting was performed by linear regression using Microsoft Excel. The correlation coefficient (r^2) was utilized as a criterion for selecting the best model that describes the release profile in the three media. An r^2 value close to 1 signifies the best correlation.

[4] = rabbits, printed as administered intravenously; cited from earlier work
[5] = cited from earlier work

SMILES: COc1cc(C(=O)O)cc(OC)c1O [Syringic Acid, 3,5-Dimethoxy-4-hydroxybenzoic acid]
- BUN before administration (Male Sprague Dawley Rats): 14.71 ± 0.51 mg per dL
- SGOT before administration (Male Sprague Dawley Rats): 337.30 ± 34.87 units per liter
- SGPT before administration (Male Sprague Dawley Rats): 87.96 ± 14.9 units per liter
- serum creatinine before administration (Male Sprague Dawley Rats): 0.58 ± 0.01 mg per dL
- Tmax ([1]; ip, 25 mg kg^−1): 0.933 h
- half-life ([1]; ip, 25 mg kg^−1): 16.7 ± 6.83 h
- AUC(0-t) ([1]; ip, 25 mg kg^−1): 72800 ng·h/mL
- half-life ([1]; po, 100 mg/kg): 1.98 ± 0.513 h
- AUC(0-t) ([1]; po, 100 mg/kg): 23600 ng·h/mL
- Cmax ([2]; 100 mg kg^−1, kidney, oral, read-out: maximum concentration (Cmax)): 105000 ± 9790 ng/g
- Cmax ([2]; 100 mg kg^−1, liver, oral): 163000 ng/g
- Cmax ([2]; ip, 25 mg kg^−1, kidney, intraperitoneal, read-out: Cmax): 218000 ± 8730 ng/g
- Cmax ([2]; ip, 25 mg kg^−1, liver, intraperitoneal, read-out: Cmax): 40100 ± 560 ng/g
- Tmax ([2]; kidney, ip, 25 mg kg^−1): 0.402 h
- half-life ([2]; kidney, ip, 25 mg kg^−1): 80.1 ± 54.5 h
- Tmax ([2]; kidney, po, 100 mg/kg): 0.47 h
- half-life ([2]; kidney, po, 100 mg/kg): 0.626 ± 0.0782 h
- Cmax ([2]; kidney, po, 100 mg/kg, read-out: Cmax): 105000 ± 9790 ng/g
- Tmax ([2]; liver, ip, 25 mg kg^−1): 0.412 h
- half-life ([2]; liver, ip, 25 mg kg^−1): 30.9 ± 18.4 h
- Tmax ([2]; liver, po, 100 mg/kg): 8.6 h
- half-life ([2]; liver, po, 100 mg/kg): 38.1 ± 13.5 h
- Cmax ([2]; liver, po, 100 mg/kg, read-out: Cmax): 16300 ± 3540 ng/g
- AUC0–72 ([2]; kidney, oral): 77,103.33 ± 2531.03 μg min g^−1
- AUC0–∞ ([2]; kidney, oral): 78,035.27 ± 2458.81 μg min g^−1
- AUC0–72 ([2]; liver, oral): 32,000.33 ± 3544.16 μg min g^−1
- AUC0–∞ ([2]; liver, oral): 47,401.91 ± 8515.77 μg min g^−1
- cumulative release of syringic acid ([3]; 0.1 N HCl, after 30 h): 110.99%
- cumulative release of syringic acid ([3]; PBS pH 6.8, after 30 h): 110.93%
- cumulative release of syringic acid ([3]; PBS pH 7.4, after 30 h): 117.55%
- cumulative release of syringic acid ([3]; water, after 30 h): 94.67%
- absolute bioavailability [4]: 86.27%
- Cmax [5]: 4500 ± 40 ng/mL
- Tmax [5]: 8 min
- area under the curve [5]: 2010 ± 48.7 ng·h/mL
